# Patent publication US7071222B2, “Preparation containing a combination of 5-methylisoxazole-4-carboxylic acid-(4-trifluoromethyl)-anilide and N-(4-trifluoromethylphenyl)2-cyano-3-hydroxycrotonic acid amide” (Sanofi-Aventis Deuschland GmbH, priority 1996, dated 2006)
# Assays:
# [1] = tested on: Adjuvant-induced arthritis; assay: Adjuvant-induced arthritis, modification in accordance with Perper; type: in vivo, rats of a Lewis strain; conditions: Compound 1 10 mg/kg of rat, Compound 2 0 mg/kg; oral once daily day 1-12; determined day 18; vs control group
# Procedure: Adjuvant-induced arthritis, modification in accordance with […] (Proc. Soc. exp. Biol. Med. 137, 506 (1971)) Male rats of a Lewis strain (Moellegard, Denmark) having a body weight of from 160 to 210 g are used as the experimental animals. On the 1st day, the animals are injected subcutaneously, into the tail root, with complete Freund's adjuvant containing a suspension of Mycobacterium butyricum in heavy paraffin oil (Difco; […] in paraffin oil; Merck). Compounds 1 and 2 are suspended in carboxymethyl cellulose (1% in water) and this suspension is administered orally. The compounds are administered once daily from the 1st to the 12th day of the experiment. The paw volume and the arthritis index are determined on the 18th day. The severity of the disorder is determined by measuring the volumes of both hind paws. The measurement is carried out by the water displacement method, using a 2060 plethysmometer (Rhema-Labortechnik, Hofheim, Germany). In addition, the arthritis index is determined on the 18th day after injection. [table] Animals forming a control group are only given the solvent (1% carboxymethyl cellulose in water). 6 animals are used for each dose and in the control group. A reduction in the increase in paw volume and a decrease in the arthritis index, as compared with the untreated control group, are used as the criteria for an effect having been achieved.
# [2] = Oral administration of compound 1 or compound 2 on its own (background statement); type: in vivo; conditions: 5 mg or 10 mg per kg, each compound on its own
SMILES,Decrease in arthritis index [1],Decrease in paw volume [1],"effect of oral administration, compound on its own [2]"
"Cc1oncc1C(=O)Nc1ccc(C(F)(F)F)cc1 [Compound 1, 5-methyl-4′-trifluoromethyl-4-isoxazolecarboxanilide]",58%,74%,does not have any significant effect
"C/C(O)=C(\C#N)C(=O)Nc1ccc(C(F)(F)F)cc1 [Compound 2, N-(4-trifluoromethylphenyl)-2-cyano-3-hydroxycrotonamide]",,,does not have any significant effect
